From US20080051413A1, “Nitrophenylpiperazine derivative of xanthine which relaxes tracheal airway and increases respiratory performance” (KAOHSIUNG MEDICAL UNIVERSITY, priority 2006, published 2008)
Several values for one entry are separate records, joined by “and”; a condition that tells them apart may be missing. Equal values may be shown once.

Test system: guinea pig tracheal smooth muscle cells
Test: Measurement of cAMP in TSMCs
Format: cell-based
Procedure: Cell Culture of Tracheal Smooth Muscle: Guinea pigs (350-450 g) were injected i.p. with a lethal dose of pentobarbital. The tracheas were excised and cut longitudinally through the cartilage. Using a dissecting microscope, TSM strips were dissected from the surrounding parentchyma. The epithelium was removed from the luminal surface, and bands of TSM were gently separated from the underlying connective tissue. Then TSM strips were chopped into small sections (1 mm^3) and incubated in Hanks' balanced salt solution (138 mM NaCl, 4 mM NaHCO3, 5 mM KCl, 0.3 mM KH2PO4, 0.3 mM Na2HPO4, and 1.0 mM glucose) with 0.05% elastase type IV and 0.2% collagenase type IV (Invitrogen, Carlsbad, Calif.) for 30 min at 37_ with gentle shaking. The solution of dissociated smooth muscle cells was centrifuged (6 min at 500 g), and the pellet was resuspended in 1:1 Dulbecco's modified Eagle's medium/Ham's F-12 medium supplemented with 10% fetal bovine serum, 0.244% NaHCO3, and 1% penicillin/streptomycin. Cells were cultured in 25-cm^2 flasks at 37_ in humidified air containing 5% CO2. Confluent cells were detached with 0.25% trypsin-0.02% EDTA at 37_and then subcultured to establish secondary cultures. Cultures were maintained for no more than four passages. They were identified as smooth muscle cells by the typical hill-and-valley appearance, and cellular homogeneity was further confirmed by the presence of smooth muscle specific _-myosin and _-actin immunoreactivity. Indirect immunofluorescence staining for a variety of antigens was carried out by first plating the cells on chamber slides, fixing the cells in 3.7% formaldehyde-phosphate-buffered saline for 10 min, and permeabilizing the cells with phosphate-buffered saline and 0.1% Triton X-100. Cells were then stained with either a mouse monoclonal antibody directed against the amino-terminal 10 amino acids of _-smooth muscle actin or _-myosin (Roche Diagnostics, Indianapolis, Ind.). All cells were stained with fluorescein-labeled goat anti-mouse IgG antibody (Roche Diagnostics).
Measurement of cAMP and cGMP: Intracellular concentrations of cAMP and cGMP in TSMCs were measured as in our previous reports (Wu B N, Lin R J, Lin C Y, Shen K P, Chiang L C, and Chen I J (2001) A xanthine-based KMUP-1 with cyclic GMP enhancing and K^+ channels opening activities in rat aortic smooth muscle. Br J Pharmacol 134:265-274; Lin R J, Wu B N, Lo Y C, Shen K P, Lin Y T, Huang C H, and Chen I J (2002) KMUP-1 relaxes rabbit corpus cavernosum smooth muscle in vitro and in vivo: involvement of cyclic GMP and K(+) channels, Br J Pharmacol 135:1159-1166). In brief, cells were finally grown in 24-well plates (10^5 cells/well). At confluence, monolayer cells were washed with phosphate-buffered saline and then incubated with KMUP-3 (0.01-100 _M) for 20 min at 37_ in medium. […] The reaction was terminated by replacement of medium with 1 ml of ice-cold 1 N hydrochloric acid. Cells suspensions were sonicated and then centrifuged at 2500 g for 15 min at 4_. Then, the supernatants were lyophilized and the cAMP and cGMP of each sample were determined using commercially available radioimmunoassay kits (GE Healthcare, Little Chalfont, Buckinghamshire, UK).

## Cn1c(=O)c2c(ncn2CCN2CCN(c3ccc([N+](=O)[O-])cc3)CC2)n(C)c1=O [KMUP-3]
0.01 _M, 20 min, basal 62.6±6.4
  cAMP level: 80.2±2.5 pmol/mg protein
0.1 _M, 20 min, basal 62.6±6.4
  cAMP level: 91.3±3.4 pmol/mg protein
1 _M, 20 min, basal 62.6±6.4
  cAMP level: 97.9±2.5 pmol/mg protein
10 _M, 20 min, basal 62.6±6.4
  cAMP level: 110.7±4.5 pmol/mg protein
100 _M compound plus SQ 22536 (100 _M) pretreatment
  cAMP level in presence of SQ 22536: 74.51 ± 3.18 pmol/mg protein
100 _M, 20 min
  cAMP accumulation versus vehicle (FIG. 6): significant elevations
100 _M, 20 min, basal/vehicle 62.6±6.4
  cAMP level: 127.5±4.8 pmol/mg protein and 128.72 ± 4.57 pmol/mg protein
